From PubChem BioAssay AID1259407 (Chemical Carcinogenesis Research Information System (CCRIS), 2018)
The source made the active and inactive calls. How the calls were made is not given here.

System: CCRIS mutagenicity, Ames/micronucleus/aberration tests
Assay: CCRIS mutagenicity studies
[1] = Test System: AMES SALMONELLA TYPHIMURIUM, Strain/Indicator: TA98, Metabolic Activation: NONE, Method: STANDARD PLATE
[2] = Test System: AMES SALMONELLA TYPHIMURIUM, Strain/Indicator: TA98, Metabolic Activation: NONE, Method: PREINCUBATION
[3] = Test System: AMES SALMONELLA TYPHIMURIUM, Strain/Indicator: TA98, Metabolic Activation: RAT, LIVER, S-9, AROCLOR 1254, Method: PREINCUBATION
[4] = Test System: AMES SALMONELLA TYPHIMURIUM, Strain/Indicator: TA98, Metabolic Activation: RAT, LIVER, S-9, AROCLOR 1254, Method: STANDARD PLATE
[5] = Test System: AMES SALMONELLA TYPHIMURIUM, Strain/Indicator: TA100, Metabolic Activation: NONE, Method: STANDARD PLATE
[6] = Test System: AMES SALMONELLA TYPHIMURIUM, Strain/Indicator: TA100, Metabolic Activation: RAT, LIVER, S-9, AROCLOR 1254, Method: STANDARD PLATE

Measured: mutagenic call

O[C@H]1C=Cc2c(ccc3nc4ccc5ccccc5c4cc23)[C@@H]1O
inactive: Test System: AMES SALMONELLA TYPHIMURIUM, Strain/Indicator: TA98, Metabolic Activation: GUINEA PIG, LIVER, S-9, 3-METHYLCHOLANTHRENE, Method: STANDARD PLATE inactive; negative
active: Test System: AMES SALMONELLA TYPHIMURIUM, Strain/Indicator: TA100, Metabolic Activation: GUINEA PIG, LIVER, S-9, 3-METHYLCHOLANTHRENE, Method: STANDARD PLATE active; positive | Test System: CHINESE HAMSTER V-79, Strain/Indicator: V-79/6-THIOGUANINE, Metabolic Activation: GUINEA PIG, LIVER, S-9, 3-METHYLCHOLANTHRENE active; positive

O=[N+]([O-])c1cccc2cn[nH]c12
active: [1] active; positive

CCC=O
inactive: [2] inactive; negative | [3] inactive; negative | Test System: AMES SALMONELLA TYPHIMURIUM, Strain/Indicator: TA100, Metabolic Activation: NONE, Method: PREINCUBATION inactive; negative | Test System: AMES SALMONELLA TYPHIMURIUM, Strain/Indicator: TA100, Metabolic Activation: RAT LIVER S-9, AROCLOR 1254, Method: PREINCUBATION inactive; negative | Test System: AMES SALMONELLA TYPHIMURIUM, Strain/Indicator: TA100, Metabolic Activation: RAT, LIVER, S-9, AROCLOR 1254, Method: PREINCUBATION inactive; negative | Test System: AMES SALMONELLA TYPHIMURIUM, Strain/Indicator: TA102, Metabolic Activation: NONE, Method: PREINCUBATION inactive; negative | Test System: AMES SALMONELLA TYPHIMURIUM, Strain/Indicator: TA102, Metabolic Activation: RAT LIVER S-9, AROCLOR 1254, Method: PREINCUBATION inactive; negative | Test System: AMES SALMONELLA TYPHIMURIUM, Strain/Indicator: TA102, Metabolic Activation: RAT, LIVER, S-9, AROCLOR 1254, Method: PREINCUBATION inactive; negative | Test System: AMES SALMONELLA TYPHIMURIUM, Strain/Indicator: TA104, Metabolic Activation: NONE, Method: PREINCUBATION inactive; negative | Test System: AMES SALMONELLA TYPHIMURIUM, Strain/Indicator: TA104, Metabolic Activation: RAT LIVER S-9, AROCLOR 1254, Method: PREINCUBATION inactive; negative | Test System: CHINESE HAMSTER V-79, Strain/Indicator: V-79/6-THIOGUANINE, Metabolic Activation: NONE inactive; negative | Test System: UDS HUMAN HEPATOCYTES, Strain/Indicator: THY INCORP, Metabolic Activation: NONE, Method: AUTORADIOGRAPHY inactive; negative
active: Test System: CHINESE HAMSTER V-79, Strain/Indicator: V-79/6-THIOGUANINE (HGPRT), Metabolic Activation: NONE, Method: REPLATING active; positive | Test System: CHINESE HAMSTER V-79, Strain/Indicator: V-79/OUABAIN (NA/K), Metabolic Activation: NONE, Method: REPLATING active; positive | Test System: UDS RAT HEPATOCYTES, Strain/Indicator: THY INCORP, Metabolic Activation: NONE, Method: AUTORADIOGRAPHY active; positive

COc1c2ccoc2nc2c(O)cccc12
inactive: [1] inactive; negative
active: Test System: AMES SALMONELLA TYPHIMURIUM, Strain/Indicator: TA98, Metabolic Activation: RAT LIVER S-9, PHENOBARTITAL, Method: STANDARD PLATE active; positive

C1COCCOCCOCCOCCO1
inactive: [1] inactive; negative | [4] inactive; negative | [5] inactive; negative | [6] inactive; negative | Test System: AMES SALMONELLA TYPHIMURIUM, Strain/Indicator: TA1530, Metabolic Activation: NONE, Method: STANDARD PLATE inactive; negative | Test System: AMES SALMONELLA TYPHIMURIUM, Strain/Indicator: TA1530, Metabolic Activation: RAT, LIVER, S-9, AROCLOR 1254, Method: STANDARD PLATE inactive; negative | Test System: AMES SALMONELLA TYPHIMURIUM, Strain/Indicator: TA1537, Metabolic Activation: NONE, Method: STANDARD PLATE inactive; negative | Test System: AMES SALMONELLA TYPHIMURIUM, Strain/Indicator: TA1537, Metabolic Activation: RAT, LIVER, S-9, AROCLOR 1254, Method: STANDARD PLATE inactive; negative

CC(=O)/C=C/c1ccccc1
inactive: Test System: AMES SALMONELLA TYPHIMURIUM, Strain/Indicator: TA98, Metabolic Activation: HAMSTER, LIVER, S-9, AROCLOR 1254, Method: STANDARD PLATE inactive; negative | [1] inactive; negative | [4] inactive; negative | [5] inactive; negative | Test System: Mouse lymphoma, Strain/Indicator: L5178Y (tk+/tk-), Metabolic Activation: Rat, Liver, S-9, Aroclor 1254, Method: Suspension/plate inactive; negative
active: Test System: AMES SALMONELLA TYPHIMURIUM, Strain/Indicator: TA100, Metabolic Activation: HAMSTER, LIVER, S-9, AROCLOR 1254, Method: STANDARD PLATE active; positive | [6] active; positive | Test System: Mouse lymphoma, Strain/Indicator: L5178Y (tk+/tk-), Metabolic Activation: None, Method: Suspension/plate active; positive

Cc1ccc(C)c2c1[nH]c1ccccc12
inactive: [1] inactive; negative | [5] inactive; negative | Test System: AMES SALMONELLA TYPHIMURIUM, Strain/Indicator: TA100, Metabolic Activation: RAT LIVER S-9, AROCLOR 1254, Method: STANDARD PLATE inactive; negative
active: Test System: AMES SALMONELLA TYPHIMURIUM, Strain/Indicator: TA98, Metabolic Activation: RAT LIVER S-9, AROCLOR 1254, Method: STANDARD PLATE active; positive

O=S(=O)(O)Oc1ccc2ccc3cc4ccccc4c4ccc1c2c34
active: [2] active; positive | [3] active; positive | Test System: AMES SALMONELLA TYPHIMURIUM, Strain/Indicator: TA98, Metabolic Activation: RAT, LUNG, S-9, Method: PREINCUBATION active; positive

OC1C=Cc2c(ccc3ccccc23)C1O (stereo unspecified)
active: [6] active; positive

CSCCl
inactive: Test System: AMES SALMONELLA TYPHIMURIUM, Strain/Indicator: TA98, Metabolic Activation: NONE, Method: SPOT TEST inactive; negative | Test System: AMES SALMONELLA TYPHIMURIUM, Strain/Indicator: TA98, Metabolic Activation: RAT, LIVER, S-9, AROCLOR 1254, Method: SPOT TEST inactive; negative
active: Test System: AMES SALMONELLA TYPHIMURIUM, Strain/Indicator: TA100, Metabolic Activation: NONE, Method: SPOT TEST active; positive | Test System: AMES SALMONELLA TYPHIMURIUM, Strain/Indicator: TA100, Metabolic Activation: RAT, LIVER, S-9, AROCLOR 1254, Method: SPOT TEST active; positive | Test System: AMES SALMONELLA TYPHIMURIUM, Strain/Indicator: TA102, Metabolic Activation: RAT, LIVER, S-9, AROCLOR 1254, Method: SPOT TEST active; positive

Nc1cccc2nc3ccccc3cc12
inactive: Test System: AMES SALMONELLA TYPHIMURIUM, Strain/Indicator: TA1535, Metabolic Activation: NONE, Method: PREINCUBATION inactive; negative | Test System: AMES SALMONELLA TYPHIMURIUM, Strain/Indicator: TA1535, Metabolic Activation: RAT, LIVER, S-9, TETRACHLOROBIPHENYL, Method: PREINCUBATION inactive; negative | Test System: AMES SALMONELLA TYPHIMURIUM, Strain/Indicator: TA1538, Metabolic Activation: NONE, Method: PREINCUBATION inactive; negative | Test System: AMES SALMONELLA TYPHIMURIUM, Strain/Indicator: TA1978, Metabolic Activation: RAT, LIVER, S-9, TETRACHLOROBIPHENYL, Method: PREINCUBATION inactive; negative
active: Test System: AMES SALMONELLA TYPHIMURIUM, Strain/Indicator: TA1537, Metabolic Activation: NONE, Method: PREINCUBATION active; positive | Test System: AMES SALMONELLA TYPHIMURIUM, Strain/Indicator: TA1537, Metabolic Activation: RAT, LIVER, S-9, TETRACHLOROBIPHENYL, Method: PREINCUBATION active; positive | Test System: AMES SALMONELLA TYPHIMURIUM, Strain/Indicator: TA1538, Metabolic Activation: RAT, LIVER, S-9, TETRACHLOROBIPHENYL, Method: PREINCUBATION active; positive | Test System: AMES SALMONELLA TYPHIMURIUM, Strain/Indicator: TA1977, Metabolic Activation: NONE, Method: PREINCUBATION active; positive | Test System: AMES SALMONELLA TYPHIMURIUM, Strain/Indicator: TA1977, Metabolic Activation: RAT, LIVER, S-9, TETRACHLOROBIPHENYL, Method: PREINCUBATION active; positive

O=c1cccccc1O
inactive: Test System: MOUSE LYMPHOMA, Strain/Indicator: L5178Y (TK+/TK-), Metabolic Activation: RAT, LIVER, S-9, AROCLOR 1254, Method: SUSPENSION/PLATE inactive; positive. reevaluation of results: negative
active: Test System: MOUSE LYMPHOMA, Strain/Indicator: L5178Y (TK+/TK-), Metabolic Activation: NONE, Method: SUSPENSION/PLATE active; positive. reevaluation of results: positive
